The source of these data is ChEMBL document CHEMBL3046469, “Fungicidal Activities of 2-(Substituted Phenoxymethyl)phenyl-2-methoxyiminoacaetamide Derivatives” (1998).

Common to all, as to type: functional
Test [1] concerns Pyricularia oryzae. In words: Fungicidal activity against Magnaporthe oryzae assessed as rice blast disease control at 125 ppm foliar application for 24 hr before inoculation at 27 +/- 2 degC measured after 5 days by preventive manner.
The test system of test [2] is Blumeria graminis f. sp. tritici. In words: Fungicidal activity against Blumeria graminis f. sp. tritici assessed as wheat powdery mildew disease control at 7.8 ppm foliar application 48 24 hr before inoculation by preventive manner.
For test [3], the system named is Podosphaera fuliginea. In words: Fungicidal activity against Podosphaera fuliginea assessed as cucumber powdery mildew control at 7.8 ppm foliar application 24 hr before inoculation at 23 +/- 2 degC by preventive manner.
The test system of test [4] is Pseudoperonospora cubensis. Put plainly: Fungicidal activity against Pseudoperonospora cubensis assessed as cucumber downy mildew disease control at 31.3 ppm foliar application 24 hr before inoculation onto the abaxial(untreated) surface of leaf by preventive manner.
The subject of test [5] is Botrytis cinerea. Put plainly: Fungicidal activity against Botryotinia fuckeliana assessed as cucumber gray mold disease control at 7.8 ppm foliar application […] at 22 +/- 2 degC by preventive manner.
In test [6] the test system is Pseudoperonospora cubensis. Put plainly: Fungicidal activity against Pseudoperonospora cubensis assessed as cucumber downy mildew disease control at 2 ppm foliar application 24 hr before inoculation onto the adaxial(treated) surface of leaf by preventive manner.
The subject of test [7] is Thanatephorus cucumeris. Put plainly: Fungicidal activity against Thanatephorus cucumeris assessed as rice sheath blight disease control at 125 ppm foliar application for 24 hr before inoculation at 26 +/- 2 degC measured after 5 days by preventive manner.
Test [8] concerns Blumeria graminis f. sp. tritici. Put plainly: Fungicidal activity against Blumeria graminis f. sp. tritici assessed as wheat powdery mildew disease control at 2 ppm foliar application for 48 hr before inoculation by preventive manner.
Test [9] deals with Pseudoperonospora cubensis. In words: Fungicidal activity against Pseudoperonospora cubensis assessed as cucumber downy mildew disease control at 7.8 ppm foliar application 24 hr before inoculation onto the adaxial(treated) surface of leaf by preventive manner.
In test [10] the test system is Pyricularia oryzae. In words: Fungicidal activity against Magnaporthe oryzae assessed as rice blast disease control at 31.3 ppm foliar application for 24 hr before inoculation at 27 +/- 2 degC measured after 5 days by preventive manner.
The subject of test [11] is Pseudoperonospora cubensis. Put plainly: Fungicidal activity against Pseudoperonospora cubensis assessed as cucumber downy mildew disease control at 125 ppm foliar application 24 hr before inoculation onto the abaxial(untreated) surface of leaf by preventive manner.
In test [12] the test system is Thanatephorus cucumeris. Put plainly: Fungicidal activity against Thanatephorus cucumeris assessed as rice sheath blight disease control at 31.3 ppm foliar application for 24 hr before inoculation at 26 +/- 2 degC measured after 5 days by preventive manner.
The test system of test [13] is Pseudoperonospora cubensis. In words: Fungicidal activity against Pseudoperonospora cubensis assessed as cucumber downy mildew disease control at 7.8 ppm foliar application 24 hr before inoculation onto the abaxial(untreated) surface of leaf by preventive manner.
Test [14] relates to Podosphaera fuliginea. Put plainly: Fungicidal activity against Podosphaera fuliginea assessed as cucumber powdery mildew control at 2 ppm foliar application 24 hr before inoculation at 23 +/- 2 degC by preventive manner.
The test system of test [15] is Blumeria graminis f. sp. tritici. Put plainly: Fungicidal activity against Blumeria graminis f. sp. tritici assessed as wheat powdery mildew disease control at 125 ppm foliar application for 48 hr before inoculation by preventive manner.
The test system of test [16] is Podosphaera fuliginea. Put plainly: Fungicidal activity against Podosphaera fuliginea assessed as cucumber powdery mildew control at 125 ppm foliar application 24 hr before inoculation at 23 +/- 2 degC by preventive manner.
The test system of test [17] is Botrytis cinerea. In words: Fungicidal activity against Botryotinia fuckeliana assessed as cucumber gray mold disease control at 31.3 ppm foliar application […] at 22 +/- 2 degC by preventive manner.
For test [18], the system named is Botrytis cinerea. In words: Fungicidal activity against Botryotinia fuckeliana assessed as cucumber gray mold disease control at 125 ppm foliar application […] at 22 +/- 2 degC by preventive manner.

For the compound `CNC(=O)/C(=N/OC)c1ccccc1COc1cc(Cl)cc(Cl)c1`, the Activity (in the test with Pyricularia oryzae [1]; in [2]; with Podosphaera fuliginea [3]; in test [4]; in the test with Botrytis cinerea [5]; in test [6]) was 90% in each case. Further, in the test on Thanatephorus cucumeris [7], the Activity is on record as below 90%.

As to `CNC(=O)/C(=N/OC)c1ccccc1COc1ccc(F)cc1`, the Activity (in the test on Pyricularia oryzae [1]; in test [8]; in the test with Podosphaera fuliginea [3]; in test [4]; with Botrytis cinerea [5]; in test [9]) was 90% each time. Further, in the test on Thanatephorus cucumeris [7], the Activity worked out at 90%.

Take `CNC(=O)/C(=N/OC)c1ccccc1COc1ccccc1Cl`: the Activity (in test [8]; in the test with Podosphaera fuliginea [3]; with Botrytis cinerea [5]; with Pyricularia oryzae [10]; in test [11]; in [9]) was 90% throughout. Further, the Activity in the test with Thanatephorus cucumeris [7] is on record as 90%.

On to `CNC(=O)/C(=N/OC)c1ccccc1COc1cccc(Cl)c1`, for which the Activity (in test [2]; in the test with Podosphaera fuliginea [3]; in the test on Thanatephorus cucumeris [12]; in the test with Botrytis cinerea [5]; in test [6]; with Pyricularia oryzae [10]) was 90% in each case. The Activity in test [13] is 90%.

As to `CNC(=O)/C(=N/OC)c1ccccc1COc1cccc(Br)c1`, the Activity was 90% with Pyricularia oryzae [1]; 90% with Podosphaera fuliginea [3]; 90% in the test with Botrytis cinerea [5]; 90% in [6]; below 90% in the test with Thanatephorus cucumeris [7]; 90% in test [13].

In the case of `CNC(=O)/C(=N/OC)c1ccccc1COc1ccc(Br)cc1`, the Activity (in test [8]; in the test on Podosphaera fuliginea [3]; in test [4]; with Botrytis cinerea [5]; in the test with Pyricularia oryzae [10]; in test [9]) was 90% in each case. The Activity in the test on Thanatephorus cucumeris [7] was below 90%.

On to `CNC(=O)/C(=N/OC)c1ccccc1COc1ccc(C(F)(F)F)cc1`, for which the Activity in test [2] is given as 90%; in the test on Podosphaera fuliginea [3], 90%; in the test on Botrytis cinerea [5] it was 90%; in the test on Pyricularia oryzae [10], 90%; in test [9], 90%; in the test on Thanatephorus cucumeris [7], below 90%. For the same compound, the Activity in test [13] turned out to be 90%.

As to `CNC(=O)/C(=N/OC)c1ccccc1COc1ccc(C)cc1`, the Activity in [8] is 90%; in the test with Botrytis cinerea [5], 90%; in [6], 90%; with Pyricularia oryzae [10], 90%; with Podosphaera fuliginea [14], 90%; in test [11] it was below 90%. Further, the Activity in the test on Thanatephorus cucumeris [7] was below 90%.

In the case of `C#CCOc1cccc(OCc2ccccc2/C(=N\OC)C(=O)NC)c1`, the Activity (in the test with Pyricularia oryzae [1]; in [15]; in [6]; in the test on Podosphaera fuliginea [16]; in the test with Botrytis cinerea [17]; in test [11]) was 90% in each case. In the test on Thanatephorus cucumeris [7], the Activity is recorded as below 90%.

Take `C#CCOc1ccc(OCc2ccccc2/C(=N\OC)C(=O)NC)cc1`: the Activity (in test [15]; in the test on Podosphaera fuliginea [3]; in [4]; in the test on Botrytis cinerea [5]; in the test with Pyricularia oryzae [10]; in test [9]) was 90% in each case. Moreover, in the test with Thanatephorus cucumeris [7], the Activity is recorded as below 90%.

For `CNC(=O)/C(=N/OC)c1ccccc1COc1ccc(/C=C\c2ccccc2)cc1`, the Activity in the test on Pyricularia oryzae [1] was below 90%; in the test with Botrytis cinerea [18] it was below 90%; in test [15], 90%; with Podosphaera fuliginea [16] it was below 90%; in test [11], below 90%; in the test with Thanatephorus cucumeris [7], below 90%.

As for `CNC(=O)/C(=N/OC)c1ccccc1COc1ccc(C(=O)c2ccccc2)cc1`, the Activity in the test on Pyricularia oryzae [1] is recorded as 90%; in test [15], 90%; in the test on Botrytis cinerea [5] it was 90%; in the test on Podosphaera fuliginea [16], below 90%; in test [11], below 90%; in the test with Thanatephorus cucumeris [7], below 90%.

Regarding `CNC(=O)/C(=N/OC)c1ccccc1COc1cccc([N+](=O)[O-])c1`, the Activity in the test on Pyricularia oryzae [1] is 90%; in test [15], 90%; in the test with Podosphaera fuliginea [16], below 90%; in test [11] it was below 90%; in [9], 90%; in the test with Thanatephorus cucumeris [7], below 90%.

Take `CNC(=O)/C(=N/OC)c1ccccc1COc1cccc(F)c1F`: the Activity in the test on Pyricularia oryzae [1] is below 90%; in [8], 90%; with Podosphaera fuliginea [3] it was 90%; in the test on Botrytis cinerea [5], 90%; in [11], below 90%; in test [9], 90%. The Activity in the test with Thanatephorus cucumeris [7] is on record as below 90%.

Consider `CNC(=O)/C(=N/OC)c1ccccc1COc1cc(F)ccc1F`, for which the Activity (in test [8]; in the test on Podosphaera fuliginea [3]; in the test with Thanatephorus cucumeris [12]; with Botrytis cinerea [5]; in test [6]; with Pyricularia oryzae [10]) was 90% throughout. Moreover, in [13], the Activity worked out at 90%.

As for `CNC(=O)/C(=N/OC)c1ccccc1COc1c(F)cccc1F`, the Activity (in test [2]; with Podosphaera fuliginea [3]; in [4]; in the test with Botrytis cinerea [17]; in the test on Pyricularia oryzae [10]; in test [9]) was 90% in each case. Also, the Activity in the test on Thanatephorus cucumeris [7] was found to be 90%.

Consider `CNC(=O)/C(=N/OC)c1ccccc1COc1cc(F)cc(F)c1`, for which the Activity (in test [8]; in the test with Podosphaera fuliginea [3]; in test [4]; with Botrytis cinerea [5]; in the test with Pyricularia oryzae [10]; in test [9]) was 90% in each case. Also, the Activity in the test on Thanatephorus cucumeris [7] stood at 90%.

Regarding `CNC(=O)/C(=N/OC)c1ccccc1COc1ccc(Cl)c(Cl)c1`, the Activity (in [2]; in test [4]; in the test with Botrytis cinerea [5]; in the test on Pyricularia oryzae [10]; with Podosphaera fuliginea [14]; in [9]) was 90% throughout. Moreover, the Activity in the test with Thanatephorus cucumeris [7] is recorded as below 90%.

As for `CNC(=O)/C(=N/OC)c1ccccc1COc1cc(C)cc(C)c1`, the Activity (in test [8]; in the test on Podosphaera fuliginea [3]; with Thanatephorus cucumeris [12]; in the test on Botrytis cinerea [5]; in test [6]; in the test with Pyricularia oryzae [10]) was 90% in each case. Besides, in test [11], the Activity is listed as below 90%.

As to `CNC(=O)/C(=N/OC)c1ccccc1COc1c(C)cc(C)cc1C`, the Activity is listed as 90% in the test on Pyricularia oryzae [1]; 90% in [15]; 90% in the test on Podosphaera fuliginea [16]; 90% in the test with Botrytis cinerea [17]; below 90% in test [11]; 90% in [9]. Further, the Activity in the test with Thanatephorus cucumeris [7] is listed as below 90%.

As for `CNC(=O)/C(=N/OC)c1ccccc1COc1cc(C)c(C)cc1Cl`, the Activity in the test with Pyricularia oryzae [1] is recorded as 90%; in test [15] it was 90%; in the test with Podosphaera fuliginea [3], 90%; in the test with Botrytis cinerea [5] it was 90%; in test [6], 90%; in test [11], below 90%. In the test on Thanatephorus cucumeris [7], the Activity was below 90%.

With `CNC(=O)/C(=N/OC)c1ccccc1COc1cc(C)c(Cl)c(C)c1`, the Activity (in test [2]; in the test on Podosphaera fuliginea [3]; in the test on Botrytis cinerea [5]; in test [6]; with Pyricularia oryzae [10]; in [11]) was 90% each time. In the test on Thanatephorus cucumeris [7], the Activity is listed as below 90%.

Consider `CNC(=O)/C(=N/OC)c1ccccc1COc1ccccc1F`, for which the Activity (in the test on Podosphaera fuliginea [3]; with Botrytis cinerea [5]; in the test with Pyricularia oryzae [10]; in [9]; in the test with Thanatephorus cucumeris [7]; in test [13]) was 90% each time.
